# Data reported in the supplement of paper PMC5579334.
# ± gives the standard deviation of the averaged measurements.
# Columns and labels:
# [1] = tested on: HSC2 (primary human Schwann cells); experiment: drug sensitivity score (DSS, CellTox-Green cytotoxicity, 72 h) (DSS (dimensionless)); higher = more cytotoxic; extreme values may be limits of the assay
# Summary of the method: (§1)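 For 72 h at 37 °C, MPNST cell lines and primary human Schwann cells were exposed in 384-well plates to five 10-fold compound dilutions. CellTox-Green, added before seeding at a final 1:1000 dilution, gave fluorescence from DNA released by disrupted cells. Signals were scaled to vehicle and positive-control wells, cultures failing plate quality control were left out, and four-parameter logistic fits were applied. Relative IC50 and drug sensitivity score were derived from the fits, with IC50 censored at the top concentration.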
# [2] = tested on: HSC1 (primary human Schwann cells); experiment: as above
# Summary of the method: as §1
# S1507-2 [3] = experiment: as above
# Summary of the method: as §1
# HS-PSS [4] = experiment: as above
# Summary of the method: as §1
# STS26T [5] = experiment: as above
# Summary of the method: as §1
# ST8814 [6] = experiment: as above
# Summary of the method: as §1
# [7] = tested on: HSC2 (primary human Schwann cells); experiment: % inhibition of CellTiter-Glo viability at highest tested concentration (72 h), relative to DMSO and benzethonium chloride controls; higher = more inhibition
# Summary of the method: (§2)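 MPNST cell lines and primary human Schwann cells were seeded at 750–1000 cells per well into 384-well plates preprinted with each compound at five concentrations in 10-fold steps, then incubated 72 h at 37 °C, 5% CO2. CellTiter-Glo ATP luminescence gave viability, scaled between vehicle and positive-control wells, with duplicates averaged where present. Curves were fitted with a four-parameter logistic model. Percent inhibition refers to the top concentration, while drug sensitivity score and relative IC50, censored at the top concentration, come from these fits.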
# [8] = tested on: HSC1 (primary human Schwann cells); experiment: as above
# Summary of the method: as §2
# HS-Sch-2 [9] = experiment: as above
# Summary of the method: as §2
# S1507-2 [10] = experiment: as above
# Summary of the method: as §2
# S462 [11] = experiment: as above
# Summary of the method: as §2
# YST-1 [12] = experiment: as above
# Summary of the method: as §2
# HS-PSS [13] = experiment: as above
# Summary of the method: as §2
# STS26T [14] = experiment: as above
# Summary of the method: as §2
# ST8814 [15] = experiment: as above
# Summary of the method: as §2
# [16] = tested on: HSC2 (primary human Schwann cells); experiment: drug sensitivity score (DSS, CellTiter-Glo viability, 72 h) (DSS (dimensionless)); higher = more sensitive; extreme values may be limits of the assay
# Summary of the method: as §2
# [17] = tested on: HSC1 (primary human Schwann cells); experiment: as above
# Summary of the method: as §2
# HS-Sch-2 [18] = experiment: as above
# Summary of the method: as §2
# S1507-2 [19] = experiment: as above
# Summary of the method: as §2
# S462 [20] = experiment: as above
# Summary of the method: as §2
# YST-1 [21] = experiment: as above
# Summary of the method: as §2
# HS-PSS [22] = experiment: as above
# Summary of the method: as §2
# STS26T [23] = experiment: as above
# Summary of the method: as §2
# ST8814 [24] = experiment: as above
# Summary of the method: as §2
smiles,measurement,setting,value
O=C1CCC(N2C(=O)c3ccccc3C2=O)C(=O)N1 (stereo not drawn) [Thalidomide] (max concentration tested 10000 nM),drug sensitivity score,[1],0
same,drug sensitivity score,[2],0
same,drug sensitivity score,S1507-2 [3],0
same,drug sensitivity score,HS-PSS [4],0
same,drug sensitivity score,STS26T [5],0
same,drug sensitivity score,ST8814 [6],0
same,% inhibition,[7],8.31%
same,% inhibition,[8],1.74%
same,% inhibition,HS-Sch-2 [9],12.4%
same,% inhibition,S1507-2 [10],13 ± 12%
same,% inhibition,S462 [11],-8.98 ± 4.2%
same,% inhibition,YST-1 [12],2.49%
same,% inhibition,HS-PSS [13],8.04%
same,% inhibition,STS26T [14],2.86%
same,% inhibition,ST8814 [15],10.4%
same,drug sensitivity score,[16],0
same,drug sensitivity score,[17],0
same,drug sensitivity score,HS-Sch-2 [18],0.45
same,drug sensitivity score,S1507-2 [19],0.783 ± 1.1
same,drug sensitivity score,S462 [20],0
same,drug sensitivity score,YST-1 [21],0
same,drug sensitivity score,HS-PSS [22],0
same,drug sensitivity score,STS26T [23],0
same,drug sensitivity score,ST8814 [24],0.0095
C=CC(=O)Nc1cc2c(Nc3ccc(F)c(Cl)c3)ncnc2cc1OCCCN1CCOCC1 [Canertinib] (max concentration tested 10000 nM),drug sensitivity score,[1],8
same,drug sensitivity score,[2],7.58
same,drug sensitivity score,S1507-2 [3],5.1 ± 0.58
same,drug sensitivity score,HS-PSS [4],3.38
same,drug sensitivity score,STS26T [5],4.76
same,drug sensitivity score,ST8814 [6],4.72
same,% inhibition,[7],96.2%
same,% inhibition,[8],96.6%
same,% inhibition,HS-Sch-2 [9],94.2%
same,% inhibition,S1507-2 [10],87.9 ± 0.97%
same,% inhibition,S462 [11],96.1 ± 0.97%
same,% inhibition,YST-1 [12],96.3%
same,% inhibition,HS-PSS [13],88.7%
same,% inhibition,STS26T [14],96.5%
same,% inhibition,ST8814 [15],96.3%
same,drug sensitivity score,[16],7.63
same,drug sensitivity score,[17],8.87
same,drug sensitivity score,HS-Sch-2 [18],6.37
same,drug sensitivity score,S1507-2 [19],7.98 ± 0.98
same,drug sensitivity score,S462 [20],6.03 ± 1
same,drug sensitivity score,YST-1 [21],5.36
same,drug sensitivity score,HS-PSS [22],6.16
same,drug sensitivity score,STS26T [23],7.19
same,drug sensitivity score,ST8814 [24],8.06
O=C(O)CNC(=O)c1c(O)c2ccccc2n(Cc2ccccc2)c1=O [IOX-2] (max concentration tested 50000 nM),drug sensitivity score,[1],0
same,drug sensitivity score,[2],0
same,drug sensitivity score,S1507-2 [3],0
same,drug sensitivity score,HS-PSS [4],0
same,drug sensitivity score,STS26T [5],0
same,drug sensitivity score,ST8814 [6],0.888
same,% inhibition,[7],20.2%
same,% inhibition,[8],9.77%
same,% inhibition,HS-Sch-2 [9],89%
same,% inhibition,S1507-2 [10],26.3 ± 12%
same,% inhibition,S462 [11],12.2 ± 1.9%
same,% inhibition,YST-1 [12],12%
same,% inhibition,HS-PSS [13],65%
same,% inhibition,STS26T [14],16.4%
same,% inhibition,ST8814 [15],30.5%
same,drug sensitivity score,[16],1.03
same,drug sensitivity score,[17],0
same,drug sensitivity score,HS-Sch-2 [18],6.06
same,drug sensitivity score,S1507-2 [19],1.81 ± 1.5
same,drug sensitivity score,S462 [20],0.3 ± 0.38
same,drug sensitivity score,YST-1 [21],0.01
same,drug sensitivity score,HS-PSS [22],5.08
same,drug sensitivity score,STS26T [23],0.326
same,drug sensitivity score,ST8814 [24],2.35
CCC/C=C/C=C/C(=O)O[C@H]1/C(=C/C(=O)OC)C[C@H]2C[C@H]([C@@H](C)O)OC(=O)C[C@H](O)C[C@@H]3C[C@H](OC(C)=O)C(C)(C)[C@](O)(C[C@@H]4C/C(=C/C(=O)OC)C[C@H](/C=C/C(C)(C)[C@]1(O)O2)O4)O3 [Bryostatin 1] (max concentration tested 100 nM),drug sensitivity score,[1],0
same,drug sensitivity score,[2],0
same,drug sensitivity score,S1507-2 [3],2.29 ± 3.2
same,drug sensitivity score,HS-PSS [4],0
same,drug sensitivity score,STS26T [5],0
same,drug sensitivity score,ST8814 [6],0
same,% inhibition,[7],-14.2%
same,% inhibition,[8],-11.5%
same,% inhibition,HS-Sch-2 [9],19.4%
same,% inhibition,S1507-2 [10],21.1 ± 2.6%
same,% inhibition,S462 [11],24.9 ± 3.1%
same,% inhibition,YST-1 [12],7.32%
same,% inhibition,HS-PSS [13],11.2%
same,% inhibition,STS26T [14],20.4%
same,% inhibition,ST8814 [15],-11.8%
same,drug sensitivity score,[16],0
same,drug sensitivity score,[17],0
same,drug sensitivity score,HS-Sch-2 [18],7.06
same,drug sensitivity score,S1507-2 [19],0.762 ± 1.1
same,drug sensitivity score,S462 [20],1.37 ± 0.77
same,drug sensitivity score,YST-1 [21],0
same,drug sensitivity score,HS-PSS [22],1.21
same,drug sensitivity score,STS26T [23],2.82
same,drug sensitivity score,ST8814 [24],0
CCN(CC)CCNC(=O)c1c(C)[nH]c(/C=C2\C(=O)Nc3ccc(F)cc32)c1C [Sunitinib] (max concentration tested 1000 nM),drug sensitivity score,[1],0
same,drug sensitivity score,[2],0
same,drug sensitivity score,S1507-2 [3],17.2 ± 24
same,drug sensitivity score,HS-PSS [4],0
same,drug sensitivity score,STS26T [5],0
same,drug sensitivity score,ST8814 [6],0
same,% inhibition,[7],-10.9%
same,% inhibition,[8],-2.06%
same,% inhibition,HS-Sch-2 [9],6.65%
same,% inhibition,S1507-2 [10],17.7 ± 11%
same,% inhibition,S462 [11],16.1 ± 0.67%
same,% inhibition,YST-1 [12],-7.4%
same,% inhibition,HS-PSS [13],11.8%
same,% inhibition,STS26T [14],8.24%
same,% inhibition,ST8814 [15],14.7%
same,drug sensitivity score,[16],0
same,drug sensitivity score,[17],0
same,drug sensitivity score,HS-Sch-2 [18],0
same,drug sensitivity score,S1507-2 [19],0.923 ± 1.3
same,drug sensitivity score,S462 [20],0.473 ± 0.41
same,drug sensitivity score,YST-1 [21],0
same,drug sensitivity score,HS-PSS [22],0
same,drug sensitivity score,STS26T [23],0
same,drug sensitivity score,ST8814 [24],0.732
COc1cc2/c(=N/c3ccc(Br)cc3F)nc[nH]c2cc1OCC1CCN(C)CC1 [Vandetanib] (max concentration tested 1000 nM),drug sensitivity score,[1],0
same,drug sensitivity score,[2],0
same,drug sensitivity score,S1507-2 [3],0.78 ± 1.1
same,drug sensitivity score,HS-PSS [4],0.53
same,drug sensitivity score,STS26T [5],0
same,drug sensitivity score,ST8814 [6],0
same,% inhibition,[7],-4.21%
same,% inhibition,[8],-0.207%
same,% inhibition,HS-Sch-2 [9],8.38%
same,% inhibition,S1507-2 [10],28 ± 9.4%
same,% inhibition,S462 [11],11.2 ± 6.6%
same,% inhibition,YST-1 [12],2.38%
same,% inhibition,HS-PSS [13],34.2%
same,% inhibition,STS26T [14],14.5%
same,% inhibition,ST8814 [15],1.05%
same,drug sensitivity score,[16],0
same,drug sensitivity score,[17],0
same,drug sensitivity score,HS-Sch-2 [18],0
same,drug sensitivity score,S1507-2 [19],1.44 ± 2
same,drug sensitivity score,S462 [20],0
same,drug sensitivity score,YST-1 [21],0
same,drug sensitivity score,HS-PSS [22],4.01
same,drug sensitivity score,STS26T [23],0.185
same,drug sensitivity score,ST8814 [24],0
COc1cc2ncnc(Nc3ccc(F)c(Cl)c3)c2cc1NC(=O)/C=C/CN1CCCCC1 [Dacomitinib] (max concentration tested 1000 nM),drug sensitivity score,[1],0
same,drug sensitivity score,[2],0
same,drug sensitivity score,S1507-2 [3],1.18 ± 1.6
same,drug sensitivity score,HS-PSS [4],1.85
same,drug sensitivity score,STS26T [5],0
same,drug sensitivity score,ST8814 [6],0
same,% inhibition,[7],19.3%
same,% inhibition,[8],12.1%
same,% inhibition,HS-Sch-2 [9],32.6%
same,% inhibition,S1507-2 [10],24.7 ± 9.1%
same,% inhibition,S462 [11],7.49 ± 5.3%
same,% inhibition,YST-1 [12],9.37%
same,% inhibition,HS-PSS [13],35.4%
same,% inhibition,STS26T [14],13.6%
same,% inhibition,ST8814 [15],16.4%
same,drug sensitivity score,[16],0.456
same,drug sensitivity score,[17],0.027
same,drug sensitivity score,HS-Sch-2 [18],2.81
same,drug sensitivity score,S1507-2 [19],1.41 ± 1.5
same,drug sensitivity score,S462 [20],0.0398 ± 0.056
same,drug sensitivity score,YST-1 [21],0
same,drug sensitivity score,HS-PSS [22],3
same,drug sensitivity score,STS26T [23],0.0007
same,drug sensitivity score,ST8814 [24],0.993
